US20240092761A1, “QUINAZOLINE COMPOUNDS AND METHODS OF USE” (IAMBIC THERAPEUTICS, INC., priority 2022, published 2024)
pIC50: −log10 of the molar value.

Assays:
[1] = molecular target: CDK4/Cyclin D1 (Homo sapiens (Human), UniProt P11802); experiment: CDK4/Cyclin D1 Mobility Shift Assay (MSA); assay type: biochemical; conditions: 0.2 mM ATP, read-out: CDK4/ CyclinD1 MSA IC50
Excerpt: CDK4/Cyclin D1 Mobility Shift Assay (MSA)
The purpose CDK4/Cyclin D1 assay is to evaluate the inhibition (% inhibition and IC50 values) in the presence of small molecule inhibitors by using a fluorescence based microfluidic mobility shift assay. CDK4/Cyclin D1 catalyzes the production of ADP from ATP that accompanies the phosphoryl transfer to the substrate peptide 5-FAM-Dyrktide (5-FAM-RRRFRPASPLRGPPK) (Perkin Elmer Peptide 34). The mobility shift assay (MSA) electrophoretically separates the fluorescently labelled peptides (substrate and phosphorylated product) following the kinase reaction. Both substrate and product are measured, and the ratio of these values is used to generate % conversion of substrate to product by the LabChip EZ Reader. Typical reaction solutions contained 2% DMSO (+/−inhibitor), 10 mM MgCl2, 1 mM EGTA, 0.05% BSA, 2 mM DTT, 0.2 mM ATP, 0.01% Brig-35, 1.5 uM 5-FAM-Dyrktide, 2.5 nM CDK4/Cyclin D1 in 50 mM HEPES buffer at pH 7.5. The reaction was initiated with the addition of substrate solution, following a 30-minute pre-incubation of enzyme and inhibitor at 22° C. in the reaction mix. The reaction was stopped after 180 minutes by the addition of 75 uL of 500 mM EDTA and measured on a Perkin Elmer EZ reader instrument. IC50 determinations were made from a plot of the fractional velocity as a function of inhibitor concentration fit to the 4 parameters IC50 equation.

[2] = molecular target: CDK6/Cyclin D3 (Homo sapiens (Human), UniProt Q00534); experiment: CDK6/Cyclin D3 ADP-Glo Kinase Assay; assay type: biochemical; conditions: 100 uM ATP, read-out: CDK6/ CyclinD3 IC50
Summary of the method: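 Recombinant human CDK6/Cyclin D3 pre-incubated 30 min with inhibitor at room temperature, then reaction started with ATP/substrate and run 90 min at room temperature. ADP formed detected by ADP-Glo luminescence; IC50 from a 4-parameter fit of fractional velocity versus inhibitor concentration.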

[3] = molecular target: CDK2/Cyclin E1 full length (Homo sapiens (Human), UniProt P24941); experiment: CDK2/Cyclin E1 Full Length ADP-Glo Kinase Assay; assay type: biochemical; conditions: 20 uM ATP, read-out: CDK2/ CyclinE1 IC50
Summary of the method: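 Full-length human CDK2/Cyclin E1 (0.328 nM) pre-incubated 30 min with inhibitor at RT, then reacted 90 min at RT with 20 uM ATP (Km 64.78 uM) and 0.75 uM substrate in pH 7.5 HEPES, 2% DMSO. ADP measured by ADP-Glo luminescence; IC50 from 4-parameter fit of fractional velocity.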

[4] = tested on: MCF-7 cells; experiment: Cell Growth Inhibition, MCF-7 (CellTiterGlo, 6 days); assay type: cell-based; conditions: Homo sapiens, MCF7, 144 h; MCF-7, 6-day treatment, CellTiterGlo 2.0
Summary of the method: (§1)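 MCF-7 and OVCAR-3 cells (RPMI, 10% FBS) were seeded at 500 cells/well onto compound, typically 10–10,000 nM in half-log dilutions. Growth proceeded 6 days at 37 °C, then CellTiterGlo luminescence was read. % inhibition was taken versus control, and IC50 came from a four-parameter variable-slope fit.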

[5] = molecular target: CDK1/Cyclin B1 (Homo sapiens (Human), UniProt P06493); experiment: CDK1/Cyclin B1 ADP-Glo Kinase Assay; assay type: biochemical; conditions: 80 uM ATP
Summary of the method: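 CDK1/cyclin B1 (4.917 nM) preincubated 30 min with inhibitor (2% DMSO), then 80 µM ATP (Km 78.6 µM) and 0.75 µM substrate added; 90 min, room temperature, pH 7.5. ADP measured by ADP-Glo luminescence; IC50 from 4-parameter fit.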

[6] = tested on: OVCAR-3 cells; experiment: Cell Growth Inhibition, OVCAR-3 (CellTiterGlo, 6 days); assay type: cell-based; conditions: Homo sapiens, 144 h; OVCAR-3, 6-day treatment, CellTiterGlo 2.0
Summary of the method: as §1

Chain of CDK4/Cyclin D1 (P11802 whole entry): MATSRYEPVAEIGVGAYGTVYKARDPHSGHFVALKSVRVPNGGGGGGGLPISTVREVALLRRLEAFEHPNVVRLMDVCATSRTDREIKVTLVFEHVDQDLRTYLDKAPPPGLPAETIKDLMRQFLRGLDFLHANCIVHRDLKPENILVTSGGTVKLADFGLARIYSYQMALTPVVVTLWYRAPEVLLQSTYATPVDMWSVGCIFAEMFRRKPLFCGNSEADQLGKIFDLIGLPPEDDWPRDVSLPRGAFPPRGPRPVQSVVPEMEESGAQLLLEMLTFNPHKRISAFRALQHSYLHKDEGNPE
Chain of CDK4/Cyclin D1 (P24385 whole entry partner): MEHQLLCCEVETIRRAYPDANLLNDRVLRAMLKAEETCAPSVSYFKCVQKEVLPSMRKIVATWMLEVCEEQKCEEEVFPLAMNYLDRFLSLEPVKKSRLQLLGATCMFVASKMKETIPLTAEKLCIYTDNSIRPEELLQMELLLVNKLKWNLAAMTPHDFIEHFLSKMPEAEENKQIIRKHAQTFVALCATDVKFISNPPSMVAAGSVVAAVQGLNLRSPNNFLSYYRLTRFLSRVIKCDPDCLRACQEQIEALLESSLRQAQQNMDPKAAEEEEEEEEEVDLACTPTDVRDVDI
Chain of CDK1/Cyclin B1 (P06493 whole entry): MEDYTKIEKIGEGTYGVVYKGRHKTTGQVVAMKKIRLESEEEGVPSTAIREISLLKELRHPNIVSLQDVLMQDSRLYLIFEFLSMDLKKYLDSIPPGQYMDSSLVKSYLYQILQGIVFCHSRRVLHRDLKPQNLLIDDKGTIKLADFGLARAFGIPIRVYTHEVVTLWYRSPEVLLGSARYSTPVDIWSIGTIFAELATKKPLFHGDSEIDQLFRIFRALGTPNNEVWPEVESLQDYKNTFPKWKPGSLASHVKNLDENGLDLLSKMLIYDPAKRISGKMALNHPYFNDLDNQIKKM
Chain of CDK1/Cyclin B1 (P14635 whole entry partner): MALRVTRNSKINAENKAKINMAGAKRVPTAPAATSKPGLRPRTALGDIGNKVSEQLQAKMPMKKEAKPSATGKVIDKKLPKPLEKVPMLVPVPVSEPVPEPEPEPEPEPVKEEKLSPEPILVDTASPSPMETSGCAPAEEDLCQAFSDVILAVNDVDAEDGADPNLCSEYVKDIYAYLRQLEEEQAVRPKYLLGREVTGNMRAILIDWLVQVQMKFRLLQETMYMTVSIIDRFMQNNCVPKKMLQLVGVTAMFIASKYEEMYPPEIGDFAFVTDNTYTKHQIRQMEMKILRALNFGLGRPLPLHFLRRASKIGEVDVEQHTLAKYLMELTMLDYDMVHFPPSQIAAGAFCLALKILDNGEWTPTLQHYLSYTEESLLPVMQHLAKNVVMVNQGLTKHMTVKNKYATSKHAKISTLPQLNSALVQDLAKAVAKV
Chain of CDK6/Cyclin D3 (Q00534 whole entry): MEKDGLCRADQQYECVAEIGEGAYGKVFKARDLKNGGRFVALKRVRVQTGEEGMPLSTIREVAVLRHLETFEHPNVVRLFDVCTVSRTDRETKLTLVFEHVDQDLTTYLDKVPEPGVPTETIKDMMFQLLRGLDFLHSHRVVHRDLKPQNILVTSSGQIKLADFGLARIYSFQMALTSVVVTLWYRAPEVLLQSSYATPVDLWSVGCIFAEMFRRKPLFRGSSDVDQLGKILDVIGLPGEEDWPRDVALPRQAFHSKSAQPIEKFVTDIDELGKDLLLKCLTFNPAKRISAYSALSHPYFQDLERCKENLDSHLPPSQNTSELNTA
Chain of CDK6/Cyclin D3 (P30281 whole entry partner): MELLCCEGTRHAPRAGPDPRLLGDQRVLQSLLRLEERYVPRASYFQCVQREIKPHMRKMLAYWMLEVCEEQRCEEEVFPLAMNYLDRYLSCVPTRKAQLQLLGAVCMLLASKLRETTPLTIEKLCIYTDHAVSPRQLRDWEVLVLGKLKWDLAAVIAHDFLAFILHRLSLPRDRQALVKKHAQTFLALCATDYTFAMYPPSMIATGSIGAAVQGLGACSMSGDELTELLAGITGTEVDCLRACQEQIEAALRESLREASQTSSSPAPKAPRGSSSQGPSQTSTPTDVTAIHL

Compound	pIC50 [1]	pIC50 [2]	pIC50 [3]	pIC50 [4]	pIC50 [5]	pIC50 [6]
CS(=O)(=O)N1CCC(Nc2ncc3cccc(C4CCCC4)c3n2)CC1 [Example 1, 8-cyclopentyl-N-(1-(methylsulfonyl)piperidin-4-yl)quinazolin-2-amine]	> 6.70	> 6.70	> 6.70	6.30 to 6.70	> 6.70	5.70 to 6.30
CS(=O)(=O)N1CCC(Nc2ncc3cccc(N4CCC5(C4)CC(F)(F)C5)c3n2)CC1 [Example 3, 8-(2,2-difluoro-6-azaspiro[3.4]octan-6-yl)-N-(1-(methylsulfonyl)piperidin-4-yl)quinazolin-2-amine]	> 6.70	> 6.70	> 6.70	< 5.70	5.70 to 6.30	< 5.70
CS(=O)(=O)N1CCC(Nc2ncc3cccc(N4CCC5(C4)CS(=O)(=O)C5)c3n2)CC1 [Example 4, 6-(2-((1-(methylsulfonyl)piperidin-4-yl)amino)quinazolin-8-yl)-2-thia-6-azaspiro[3.4]octane 2,2-dioxide]	> 6.70	> 6.70	> 6.70	5.70 to 6.30	5.70 to 6.30	< 5.70
CS(=O)(=O)N1CCC(Nc2ncc3cccc(N4CCOC5(CC5)C4)c3n2)CC1 [Example 9, N-(1-(methylsulfonyl)piperidin-4-yl)-8-(4-oxa-7-azaspiro[2.5]octan-7-yl)quinazolin-2-amine]	5.70 to 6.30	6.30 to 6.70	6.30 to 6.70	–	< 5.70	–
CS(=O)(=O)N1CCC(Nc2ncc3cccc(N4CCN(C5COC5)CC4)c3n2)CC1 [Example 11, N-(1-(methylsulfonyl)piperidin-4-yl)-8-(4-(oxetan-3-yl)piperazin-1-yl)quinazolin-2-amine]	5.70 to 6.30	< 5.70	5.70 to 6.30	–	< 5.70	–
CS(=O)(=O)N1CCC(Nc2ncc3cccc(N4CCN(S(C)(=O)=O)CC4)c3n2)CC1 [Example 12, 8-(4-(methylsulfonyl)piperazin-1-yl)-N-(1-(methylsulfonyl)piperidin-4-yl)quinazolin-2-amine]	6.30 to 6.70	5.70 to 6.30	6.30 to 6.70	–	< 5.70	–
CS(=O)(=O)N1CCC(Nc2ncc3cccc(N4CCN(C5CC5)CC4)c3n2)CC1 [Example 13, 8-(4-cyclopropylpiperazin-1-yl)-N-(1-(methylsulfonyl)piperidin-4-yl)quinazolin-2-amine]	6.30 to 6.70	5.70 to 6.30	> 6.70	–	< 5.70	–
CS(=O)(=O)N1CCC(Nc2ncc3cccc(N4CC5(CCOCC5)C4C4CC4)c3n2)CC1 (stereo not shown) [Example 16, 8-(1-cyclopropyl-7-oxa-2-azaspiro[3.5]nonan-2-yl)-N-(1-(methylsulfonyl)piperidin-4-yl)quinazolin-2-amine]	5.70 to 6.30	< 5.70	> 6.70	–	< 5.70	–
CS(=O)(=O)N1CCC(Nc2ncc3cccc(N4CCN(CC5CC5)CC4)c3n2)CC1 [Example 17, 8-(4-(cyclopropylmethyl)piperazin-1-yl)-N-(1-(methylsulfonyl)piperidin-4-yl)quinazolin-2-amine]	6.30 to 6.70	5.70 to 6.30	> 6.70	–	< 5.70	–
CCN(CC)C1CCN(c2cccc3cnc(NC4CCN(S(C)(=O)=O)CC4)nc23)CC1 [Example 20, 8-(4-(diethylamino)piperidin-1-yl)-N-(1-(methylsulfonyl)piperidin-4-yl)quinazolin-2-amine]	6.30 to 6.70	5.70 to 6.30	> 6.70	–	< 5.70	–
